Test systems include MCF7 breast; HOP-62 NSCLC; SW-620 colon; CAKI-1 renal; KM12 colon; T-47D breast; PC-3 prostate; 786-0 renal; BT-549 breast; M14 melanoma.
What all share (assay): growth of human tumour cells (NCI), 48 h

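Cultured in 96-well plates, cells were exposed to test compound for 48 hours across five concentrations. Here, GI50 denotes the concentration required for 50% inhibition of growth. TGI: concentration producing complete growth inhibition.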

For `O=C(CCN1CCCC1)Nc1ccc2c(Nc3ccccc3)c3ccccc3nc2c1`, the GI50 in the test on MCF7 breast is 22.1 nM; in the test with HOP-62 NSCLC, 0.404 µM; in the test with SW-620 colon, 0.232 µM; in the test with CAKI-1 renal it was 0.397 µM; with KM12 colon it was 546 nM; in the test on T-47D breast, 399 nM. For the same compound, the GI50 is 951 nM in the test on PC-3 prostate, 0.467 µM in the test on 786-0 renal, 1500 nM in the test with BT-549 breast and 1130 nM with M14 melanoma. Further, the TGI in the test on MCF7 breast was 1.77 µM; in the test on HOP-62 NSCLC it was 2.51 µM; in the test on SW-620 colon, 1.87 µM; in the test with CAKI-1 renal, 2.08 µM; in the test with KM12 colon, 2.7 µM; in the test with T-47D breast, 2.76 µM. Besides, the TGI was 3.01 µM in the test with PC-3 prostate, 1.93 µM in the test on 786-0 renal, 3.09 µM in the test with BT-549 breast and 2.69 µM in the test on M14 melanoma.

As for `COc1ccc(/C=C(/C(=O)n2cnnn2)c2cc(OC)c(OC)c(OC)c2)cc1`, the GI50 with MCF7 breast was 2630 nM; in the test on HOP-62 NSCLC, 4.82 µM; in the test on SW-620 colon, 3.78 µM; in the test on CAKI-1 renal, 4.15 µM; in the test on KM12 colon, 1960 nM; in the test with T-47D breast, greater than 100000 nM. Besides, the GI50 in the test on PC-3 prostate was 4030 nM; in the test with 786-0 renal, 4.76 µM; with BT-549 breast, 2320 nM; in the test on M14 melanoma it was 2580 nM. Also, the TGI with MCF7 breast, in the test with HOP-62 NSCLC, in the test on SW-620 colon, in the test with CAKI-1 renal, in the test on KM12 colon and with T-47D breast was greater than 100 µM throughout. The TGI in the test on PC-3 prostate was greater than 100 µM; with 786-0 renal, greater than 100 µM; with BT-549 breast, 7.57 µM; with M14 melanoma, greater than 100 µM.

As to `CC(C)(C)[Si](C)(C)OCC1OC(n2cnc3c(N)ncnc32)C(O)C1O` (stereo not given), the TGI with MCF7 breast, with HOP-62 NSCLC, with SW-620 colon, with CAKI-1 renal, in the test with KM12 colon and with T-47D breast was greater than 100 µM throughout. The TGI in the test with PC-3 prostate, with 786-0 renal, in the test on BT-549 breast and in the test on M14 melanoma was greater than 100 µM each time.

In the case of `COc1ccc(/C=C/C(=O)C(C)(C)Br)cc1`, the TGI in the test with MCF7 breast turned out to be 19.1 µM; with HOP-62 NSCLC it was 25.3 µM; in the test with SW-620 colon, 5.37 µM; in the test with CAKI-1 renal it was 35.7 µM; in the test with KM12 colon, 55.1 µM; with T-47D breast, 76.2 µM. Moreover, the TGI was found to be 36.9 µM with PC-3 prostate, 23.7 µM with 786-0 renal, 7.06 µM in the test with BT-549 breast and 3.79 µM with M14 melanoma.

In the case of `NC(=O)c1cc(I)ccc1NC(=O)COc1ccccc1`, the GI50 in the test on MCF7 breast was 279 nM; in the test with HOP-62 NSCLC, 0.598 µM; in the test with SW-620 colon it was 0.432 µM; in the test with CAKI-1 renal, 0.547 µM; in the test on KM12 colon, 328 nM; in the test with T-47D breast, 556 nM. For the same compound, the GI50 with PC-3 prostate is 471 nM; in the test with 786-0 renal, 0.957 µM; in the test with BT-549 breast it was 644 nM; in the test on M14 melanoma, 403 nM. Also, the TGI with MCF7 breast is greater than 100 µM; with HOP-62 NSCLC, 12.4 µM; with SW-620 colon it was greater than 100 µM; in the test with CAKI-1 renal, greater than 100 µM; in the test on KM12 colon it was greater than 100 µM; in the test with T-47D breast, greater than 100 µM. Besides, the TGI with PC-3 prostate is greater than 100 µM; in the test with 786-0 renal, 18.8 µM; with BT-549 breast it was 31.5 µM; with M14 melanoma, greater than 100 µM.

Regarding `COc1ccc(C2ONC3=NCCN32)cc1` (stereo not given), the GI50 in the test with MCF7 breast was 61100 nM; in the test with HOP-62 NSCLC, 84.9 µM; with SW-620 colon, 46.8 µM; with CAKI-1 renal, 48.2 µM; in the test on KM12 colon, 54700 nM; in the test with T-47D breast, 99400 nM. In addition, the GI50 with PC-3 prostate is 55400 nM; in the test on 786-0 renal, 25.5 µM; in the test with BT-549 breast, 94100 nM; in the test on M14 melanoma, greater than 100000 nM. For the same compound, the TGI in the test on MCF7 breast, in the test on HOP-62 NSCLC, in the test on SW-620 colon, in the test with CAKI-1 renal, in the test on KM12 colon and in the test on T-47D breast was greater than 100 µM in each case. Moreover, the TGI with PC-3 prostate, in the test with 786-0 renal, in the test with BT-549 breast and in the test with M14 melanoma was greater than 100 µM in each case.

Take `O=C(O)Cn1ccnc1[N+](=O)[O-]`: the TGI in the test with MCF7 breast, in the test with HOP-62 NSCLC, with SW-620 colon, in the test on CAKI-1 renal, in the test on KM12 colon and in the test on T-47D breast was greater than 100 µM in each case. Further, the TGI in the test on PC-3 prostate, in the test on 786-0 renal, with BT-549 breast and in the test on M14 melanoma was greater than 100 µM throughout.

On to `COc1cc2cc(Oc3ccc(NC(=O)c4cccc5c4OCCO5)cc3)c(C)nc2cc1OC`, for which the GI50 in the test with MCF7 breast was 6270 nM; with HOP-62 NSCLC, 9.13 µM; in the test on SW-620 colon, 49.9 µM; with CAKI-1 renal, 14.2 µM; in the test with KM12 colon, 4390 nM; with T-47D breast, 2820 nM. Besides, the GI50 is 2490 nM with PC-3 prostate, 4.7 µM in the test with 786-0 renal, 1710 nM with BT-549 breast and 4900 nM with M14 melanoma. For the same compound, the TGI was greater than 100 µM with MCF7 breast; 94.6 µM in the test on HOP-62 NSCLC; greater than 100 µM in the test with SW-620 colon; greater than 100 µM with CAKI-1 renal; greater than 100 µM in the test with KM12 colon; 15.4 µM with T-47D breast. Moreover, the TGI in the test on PC-3 prostate is 16.2 µM; with 786-0 renal, greater than 100 µM; in the test with BT-549 breast it was 4.42 µM; in the test on M14 melanoma, greater than 100 µM.

`O=C(Nc1ccccc1O)c1ccc(CNC(=O)c2ccsc2Nc2ccnc(C(F)(F)F)c2)cc1`: the GI50 was 2030 nM with MCF7 breast; 7.84 µM in the test on HOP-62 NSCLC; 2.5 µM in the test with SW-620 colon; 2.62 µM with CAKI-1 renal; 2840 nM with KM12 colon; 2710 nM with T-47D breast. For the same compound, the GI50 in the test with PC-3 prostate is 1940 nM; with 786-0 renal, 2.29 µM; in the test with BT-549 breast, 1890 nM; with M14 melanoma it was 2610 nM. In addition, the TGI was 10.4 µM in the test with MCF7 breast; greater than 100 µM in the test with HOP-62 NSCLC; 10.5 µM with SW-620 colon; 9.96 µM in the test with CAKI-1 renal; 11.9 µM with KM12 colon; greater than 100 µM in the test on T-47D breast. Also, the TGI in the test with PC-3 prostate is 20.8 µM; in the test on 786-0 renal, 5.34 µM; with BT-549 breast, 5.04 µM; in the test on M14 melanoma, 7.03 µM.

The values above are taken from PubChem BioAssay (NCI).
